{
  "source": "paper PMC6270165",
  "about": "“Synthesis and Biological Evaluation of 3-Benzisoxazolyl-4-indolylmaleimides as Potent, Selective Inhibitors of Glycogen Synthase Kinase-3β” (Molecules, 2013)",
  "key": {"Drak2": {"molecular_target": "T1, Drak2 (Homo sapiens, UniProt O94768)", "T1 sequence (O94768 1-372)": "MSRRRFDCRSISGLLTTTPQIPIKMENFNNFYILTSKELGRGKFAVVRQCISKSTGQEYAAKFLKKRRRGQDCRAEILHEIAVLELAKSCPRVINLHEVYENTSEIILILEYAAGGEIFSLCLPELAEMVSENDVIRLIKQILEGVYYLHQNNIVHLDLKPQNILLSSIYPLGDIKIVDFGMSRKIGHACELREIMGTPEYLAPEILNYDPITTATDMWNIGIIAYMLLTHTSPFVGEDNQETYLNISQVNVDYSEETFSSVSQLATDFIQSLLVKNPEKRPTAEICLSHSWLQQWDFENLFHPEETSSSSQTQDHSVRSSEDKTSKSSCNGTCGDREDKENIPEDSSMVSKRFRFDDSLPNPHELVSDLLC", "experiment": "Drak2 kinase assay (ADP-GLO)", "type": "biochemical", "settings": "read-out: Drak2 inhibition% at 0.8 μg/mL (~2 μM)", "method": "(§1) GSK3β belongs to CMGC family. Here, the other family members were used to evaluate the selectivity of GSK3β inhibitors, including PKC-epsilon (AGC family), JAK2 (TK family), Braf (TKL family), DRAK2 (CAMK family) and IKKβ (other family).The recombinant GST-GSK-3βprotein was expressed in Escherichia coli strain BL21-Codon Plus (DE3), purified by GSTrap affinity chromatography, and cleaved by thrombin. The GSK-3β kinase assay was carried out with the Z´-LYTETM Kinase Assay kit Ser/Thr 9 Peptide substrate (Invitrogen, Grand, NY, USA) in 10 μL reaction volume containing 50 nM enzyme, 30 μM ATP and 2 μM substrate peptide. Drak2 Proteins were presented by professor Jiang-ping Wu (Laboratory of Immunology, Research Centre, CHUM, Notre Dame Hospital, Pavilion DeSève). The Drak2 kinase reaction was performed in a final assay volume of 3.4 μL using the ADP-GLO Kinase Assay Kit (Promega, Madison, WI, USA), according the ADP-GLO protocol and read on an EnVision plate reader. The recombinant PKC-epsilon, IKKβ, and JAK2 with N-terminal His-tag were expressed using baculovirus expression system and purified with Ni-Beads. BRAF protein was from Carna Biosciences, Inc. (Kobe Port Island, Japan). And the related kinase reactions were performed in a final assay volume of 10 μL using the related HTRF Assay Kit (Cisbio, Codolet, France). Reactions were according the HTRF protocol and read on an EnVision plate reader. All reactions were carried out in triplicate. […] Data were expressed as mean ± SE."}, "GSK-3β": {"molecular_target": "T2, GSK-3β (Homo sapiens, UniProt P49841)", "T2 construct": "GST (N, cleaved yes); made in house; host or cells: Escherichia coli BL21-Codon Plus (DE3)", "T2 sequence (P49841 whole entry)": "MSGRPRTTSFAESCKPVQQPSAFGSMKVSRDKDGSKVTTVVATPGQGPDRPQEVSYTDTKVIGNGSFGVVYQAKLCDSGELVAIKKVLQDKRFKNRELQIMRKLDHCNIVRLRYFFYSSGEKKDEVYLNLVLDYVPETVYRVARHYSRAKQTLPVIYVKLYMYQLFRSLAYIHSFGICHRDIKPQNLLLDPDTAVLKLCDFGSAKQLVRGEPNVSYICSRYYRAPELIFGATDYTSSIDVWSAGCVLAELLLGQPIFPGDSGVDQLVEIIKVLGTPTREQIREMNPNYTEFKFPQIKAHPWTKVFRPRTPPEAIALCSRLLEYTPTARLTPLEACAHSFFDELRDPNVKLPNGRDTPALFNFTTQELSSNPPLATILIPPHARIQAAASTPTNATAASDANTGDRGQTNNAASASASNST", "experiment": "GSK-3β kinase assay (Z'-LYTE Kinase Assay kit Ser/Thr 9 Peptide)", "type": "biochemical", "method": "as §1"}, "[1]": {"tested_on": "Tau phosphorylation at Ser 396 in SH-SY5Y cells", "experiment": "Aβ25-35-induced Tau phosphorylation (Ser396) in SH-SY5Y cells, Western blotting", "type": "cell-based, human", "settings": "100 nM, inhibitors 1 hour, then Aβ25–35 6 hours, Western blot", "method": "It has been implicated that GSK-3β is involved in multiple cellular processes, and its ability to hyperphosphorylate Tau protein and induce neurofibrillary tangle was intensively studied. Therefore, the cell-based assay examining Tau phosphorylation at Serine 396 represents a direct functional assay to measure the cellular activity of GSK-3β inhibitors. Compounds 7c, 7f, 7j–l and 7o–q were tested for the ability to reduce Tau phosphorylation at Ser 396 in human neuroblastoma SH-SY5Y cells. LiCl, a well-known inhibitor of GSK-3β [24], was used as a positive control in this assay. […] The Aβ-induced Tau hyperphosphorylation results in neurofibrillary tangle formation, which plays an important role in Alzheimer’s disease. […] In addition, the predictions about these compounds’ brain permeability were performed using ADME module with Discovery Studio 2.1 software package.\nSH-SY5Y human neuroblastoma cells were obtained from the American Type Culture Collection (ATCC, Manassas, VA, USA). Cells were cultured in 1:1 DMEM:Ham's F12 containing 10% (v/v) fetal bovine serum (HyClone, Logan, UT, USA), 1% penicillin, and 1% streptomycin at a humidified atmosphere with 5% CO2. The medium was changed every 2 days. […] Antigen-antibody complexes were detected by the ECL Kit."}, "BRAF": {"molecular_target": "T3, BRAF (Homo sapiens, UniProt P15056)", "T3 construct": "purchased Carna Biosciences, Inc", "T3 sequence (P15056 whole entry)": "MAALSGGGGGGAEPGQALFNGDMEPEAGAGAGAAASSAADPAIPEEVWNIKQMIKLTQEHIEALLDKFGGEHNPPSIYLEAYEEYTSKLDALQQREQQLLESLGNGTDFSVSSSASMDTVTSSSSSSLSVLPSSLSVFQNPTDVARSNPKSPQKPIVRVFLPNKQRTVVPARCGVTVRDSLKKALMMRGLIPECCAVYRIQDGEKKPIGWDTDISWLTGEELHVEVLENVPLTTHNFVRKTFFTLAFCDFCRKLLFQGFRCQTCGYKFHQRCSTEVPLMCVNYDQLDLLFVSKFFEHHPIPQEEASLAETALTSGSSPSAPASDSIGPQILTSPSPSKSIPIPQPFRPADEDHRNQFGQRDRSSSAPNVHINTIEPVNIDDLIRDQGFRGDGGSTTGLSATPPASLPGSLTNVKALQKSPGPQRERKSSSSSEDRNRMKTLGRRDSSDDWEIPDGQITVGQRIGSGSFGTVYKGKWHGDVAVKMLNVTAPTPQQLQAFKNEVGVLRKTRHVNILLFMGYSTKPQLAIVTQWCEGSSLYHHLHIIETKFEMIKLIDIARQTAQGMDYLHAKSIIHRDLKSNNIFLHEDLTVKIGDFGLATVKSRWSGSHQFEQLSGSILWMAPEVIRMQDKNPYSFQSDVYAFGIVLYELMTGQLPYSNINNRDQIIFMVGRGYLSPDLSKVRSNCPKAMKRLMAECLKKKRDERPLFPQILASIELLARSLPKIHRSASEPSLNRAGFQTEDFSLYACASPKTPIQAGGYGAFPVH", "experiment": "BRAF kinase assay (HTRF)", "type": "biochemical", "settings": "read-out: BRAF inhibition% at 0.8 μg/mL (~2 μM)", "method": "as §1"}},
  "data": [
    {"smiles": "O=C1NC(=O)C(c2cn(CCCN3CCOCC3)c3ccc(Br)cc23)=C1c1noc2ccccc12", "note": "[7c, 3-(Benzo[d]isoxazol-3-yl)-4-(5-bromo-1-(3-morpholinopropyl)-1H-indol-3-yl)-1H-pyrrole-2,5-dione]", "values": [
      {"measurement": "inhibition at 2 µM", "setting": "Drak2", "value": 1.67, "unit": "%"},
      {"measurement": "IC50", "setting": "GSK-3β; 50 nM enzyme, 30 μM ATP, 2 μM substrate peptide, triplicate, mean ± SE, read-out: GSK-3β inhibitory activity IC50 (nM) ± SE", "value": "10.2 ± 5.9", "unit": "nM"},
      {"measurement": "GSK-3β inhibitory activity, fold increase as compared to 7h", "setting": "GSK-3β; ratio of IC50 values, versus 7h", "value": 14, "unit": "fold"},
      {"measurement": "Selectivity for GSK-3β over other tested kinases", "setting": "GSK-3β; versus PKC-epsilon, JAK2, BRAF, IKK2 and Drak2", "value": "high selectivity"},
      {"measurement": "Effect on Aβ25-35-induced Tau phosphorylation at Ser 396", "setting": "[1]", "value": "obviously reduce"},
      {"measurement": "inhibition at 2 µM", "setting": "BRAF", "value": 3.4, "unit": "%"}
    ]}
  ]
}
